Source: a compilation of properties of binary mixtures (doi:10.1016/j.molliq.2015.11.032)

Assay: xn = mol fraction of the nth substance listed
Details: 101 kPa

Row | Structure (SMILES) | viscosity (296.97 K, x2 = 0.75) | viscosity (301.89 K, x2 = 0.75) | viscosity (306.95 K, x2 = 0.75) | viscosity (312 K, x2 = 0.75) | viscosity (317.18 K, x2 = 0.75) | viscosity (353.18 K, x2 = 0.75) | viscosity (296.84 K, x2 = 0.9412) | electrical conductivity (298.1 K, x2 = 0.9412) | viscosity (301.89 K, x2 = 0.9412) | viscosity (312.13 K, x2 = 0.9412) | electrical conductivity (313.32 K, x2 = 0.9412) | viscosity (317.31 K, x2 = 0.9412) | electrical conductivity (328.03 K, x2 = 0.9412) | viscosity (332.72 K, x2 = 0.9412) | viscosity (353.18 K, x2 = 0.9412)
1 | C[P+](c1ccccc1)(c1ccccc1)c1ccccc1.[Br-] + OCC(O)CO | 2771 mPa·s | 1657 mPa·s | 1002.8 mPa·s | 612 mPa·s | 382 mPa·s | 59.5 mPa·s | – | – | – | – | – | – | – | – | –
2 | [Cl-].c1ccc(C[P+](c2ccccc2)(c2ccccc2)c2ccccc2)cc1 + OCC(O)CO | – | – | – | – | – | – | 1359.8 mPa·s | 0.007 S/m | 943 mPa·s | 459 mPa·s | 0.0174 S/m | 306 mPa·s | 0.0419 S/m | 110.5 mPa·s | 59.49 mPa·s
